The results in this text go back to PubChem BioAssay (NCI).

Each structure is given as a SMILES string. Values joined by “and” are separate entries in the source; they are usually repeats but may differ in a detail not shown here. Equal values may be shown once.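 1) Cells in 96-well plates. 2) Compound, 48 h, 5 concentrations. 3) Linear interpolation between surrounding doses. 4) Unreached endpoint = highest concentration. The concentration for 50% growth inhibition is given as GI50. TGI is the concentration that stops growth completely.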 Bounds are passed on as bounds.

Test systems include MDA-N; K-562 leukemia; HS 578T breast; NCI/ADR-RES ovarian; SF-268 CNS; A498 renal; HCT-116 colon; OVCAR-5 ovarian; PC-3 prostate; SK-OV-3 ovarian.
Holding throughout (test): NCI-60 cell line screen, 48 h

With `CC1CN=C(c2ccc(COc3ccc(C4=NCC(C)N4)cc3)cc2)N1` (stereo unspecified), the TGI with MDA-N, with K-562 leukemia, in the assay with HS 578T breast, with NCI/ADR-RES ovarian, in the assay with SF-268 CNS and in the assay with A498 renal was greater than 100 µM each time. Further, the TGI in the assay with HCT-116 colon, in the assay with OVCAR-5 ovarian, in the assay with PC-3 prostate and in the assay with SK-OV-3 ovarian was greater than 100 µM each time.
As to `CCCCCCCCCCCCCCCCP(=O)([O-])OCC[N+](C)(C)C`, the TGI is 30 µM with MDA-N; 35.7 µM in the assay with K-562 leukemia; 33.4 µM in the assay with HS 578T breast; 34.7 µM in the assay with NCI/ADR-RES ovarian; 34.1 µM in the assay with SF-268 CNS; 29.1 µM in the assay on A498 renal. For the same molecule, the TGI in the assay on HCT-116 colon turned out to be 28 µM; in the assay with OVCAR-5 ovarian, 21.8 µM; in the assay on PC-3 prostate it was 8.66 µM; with SK-OV-3 ovarian, 24.6 µM.
Consider `NCCCC[C@H](N)C(=O)Nc1ccc(-c2nc3ccccc3s2)cc1Cl`, for which the TGI was 9.36 µM in the assay on MDA-N; greater than 25 µM with K-562 leukemia; 51.5 µM in the assay on HS 578T breast; 51.8 µM in the assay with NCI/ADR-RES ovarian; 25.5 µM in the assay with SF-268 CNS; 2.07 µM with A498 renal. Besides, the TGI was 1.93 µM in the assay on HCT-116 colon, 17.8 µM in the assay with OVCAR-5 ovarian, 31.2 µM in the assay on PC-3 prostate and 31.1 µM in the assay on SK-OV-3 ovarian.
On to `CN(C)c1ccc(/C=c2/c3cc([N+](=O)[O-])ccc3n3c2cc(-c2ccccc2)[n+]3C)cc1`, for which the TGI is 1.66 µM with MDA-N; 7.42 µM with K-562 leukemia; 7.97 µM with HS 578T breast; greater than 100 µM in the assay on NCI/ADR-RES ovarian; 2.86 µM in the assay on SF-268 CNS; 7.94 µM in the assay on A498 renal. Also, the TGI is 5.84 µM in the assay with HCT-116 colon, 10.8 µM in the assay on OVCAR-5 ovarian, 7.27 µM in the assay with PC-3 prostate and 11.3 µM in the assay with SK-OV-3 ovarian.
`COc1ccc(N2C(=O)C3CC4=CC(=O)C[C@H]4[C@H]32)cc1` (stereo partly specified): the TGI in the assay with MDA-N is 82.1 µM; in the assay on K-562 leukemia it was greater than 100 µM; with HS 578T breast, greater than 100 µM; with NCI/ADR-RES ovarian it was greater than 100 µM; with SF-268 CNS, greater than 100 µM; in the assay on A498 renal, greater than 100 µM. In addition, the TGI in the assay with HCT-116 colon, in the assay with OVCAR-5 ovarian, in the assay with PC-3 prostate and in the assay with SK-OV-3 ovarian was greater than 100 µM throughout.
With `OCC(O)C(O)C(O)C(O)/C=N/Nc1nc(O)c(/C=C2\C=Nc3ccccc32)[nH]1` (stereo unspecified), the TGI in the assay with MDA-N, in the assay with K-562 leukemia, with HS 578T breast, in the assay with NCI/ADR-RES ovarian, in the assay with SF-268 CNS and with A498 renal was greater than 100 µM each time. For the same molecule, the TGI in the assay on HCT-116 colon was greater than 100 µM; with OVCAR-5 ovarian, greater than 100 µM; with PC-3 prostate it was 97.5 µM; with SK-OV-3 ovarian it was greater than 100 µM.
`CC1CC[C@@]2(OC1)OC1C[C@H]3[C@@H]4CCC5CC(O)CC[C@]5(C)[C@H]4C/C(=N\N(C)C)[C@]3(C)C1[C@@H]2C` (stereo partly specified): the TGI in the assay on MDA-N was 41.4 µM; in the assay on K-562 leukemia it was greater than 100 µM; in the assay with HS 578T breast, 97.7 µM; with NCI/ADR-RES ovarian it was 41.4 µM; in the assay on SF-268 CNS, 99.4 µM; in the assay on A498 renal it was 48.6 µM. Also, the TGI worked out at 60.3 µM with HCT-116 colon, 62.2 µM in the assay on OVCAR-5 ovarian, 84.6 µM in the assay on PC-3 prostate and 47 µM in the assay with SK-OV-3 ovarian.
For the molecule `Cc1sc2nc3n(c(=O)c2c1C)N=C(c1ccc([N+](=O)[O-])cc1)CS3`, the TGI with MDA-N, in the assay with K-562 leukemia, with HS 578T breast, in the assay with NCI/ADR-RES ovarian, in the assay on SF-268 CNS and in the assay with A498 renal was greater than 100 µM in each case. The TGI in the assay on HCT-116 colon, with OVCAR-5 ovarian, with PC-3 prostate and in the assay with SK-OV-3 ovarian was greater than 100 µM throughout.
As to `C[N+](C)(N)c1nc(N)c(C#N)c(C#N)c1C#N`, the TGI with MDA-N, in the assay on K-562 leukemia, in the assay with HS 578T breast, in the assay on NCI/ADR-RES ovarian, in the assay with SF-268 CNS and in the assay with A498 renal was greater than 10 µM in each case. Besides, the TGI in the assay on HCT-116 colon, in the assay with OVCAR-5 ovarian, in the assay with PC-3 prostate and with SK-OV-3 ovarian was greater than 10 µM in each case.
Turning to `CC(C)c1cccc(C(C)C)c1OS(=O)(=O)NC(=O)OC(C(F)(F)F)C(F)(F)F`, the TGI was greater than 100 µM with MDA-N; 66.6 µM in the assay on K-562 leukemia; greater than 100 µM in the assay on HS 578T breast; greater than 100 µM in the assay with NCI/ADR-RES ovarian; greater than 100 µM in the assay on SF-268 CNS; greater than 100 µM in the assay on A498 renal. For the same molecule, the TGI in the assay with HCT-116 colon, in the assay with OVCAR-5 ovarian, with PC-3 prostate and in the assay with SK-OV-3 ovarian was greater than 100 µM each time.
On to `CC1=CC(=O)/C(=C/n2c(=S)[nH]c3ccccc32)C(=O)O1`, for which the TGI in the assay with MDA-N, with K-562 leukemia, in the assay on HS 578T breast, with NCI/ADR-RES ovarian, with SF-268 CNS and with A498 renal was greater than 100 µM each time. Also, the TGI in the assay on HCT-116 colon, in the assay with OVCAR-5 ovarian, in the assay on PC-3 prostate and in the assay on SK-OV-3 ovarian was greater than 100 µM throughout.
Consider `CC(=O)C1(O)Cc2c(O)c3c(c(O)c2C(OC2CC(N)C(O)C(C)O2)C1)C(=O)c1ccccc1C3=O` (stereo unspecified), for which the GI50 was 0.026 µM in the assay on MDA-N; less than 0.0109 µM with K-562 leukemia; 0.0259 µM with SF-268 CNS; 0.0261 µM in the assay with OVCAR-5 ovarian; 0.0437 µM in the assay on PC-3 prostate; less than 0.0129 µM in the assay on SK-OV-3 ovarian. The TGI in the assay with MDA-N was 0.404 µM and 0.211 µM; in the assay with K-562 leukemia it was 0.78 µM and 0.716 µM; with HS 578T breast, 0.391 µM; in the assay on NCI/ADR-RES ovarian, 4.88 µM; with SF-268 CNS it was 0.343 µM and 0.233 µM; in the assay with A498 renal, 0.0453 µM. In addition, the TGI in the assay with HCT-116 colon was 0.62 µM and 0.174 µM; with OVCAR-5 ovarian, 0.842 µM and 0.23 µM; with PC-3 prostate, 0.741 µM; with SK-OV-3 ovarian, 0.788 µM and 0.129 µM.
Take `COC(=O)C(Cc1nc2ccccc2[nH]c1=O)C(=O)C(=O)Nc1cc(C(F)(F)F)ccc1Cl` (stereo unspecified): the TGI in the assay on MDA-N was greater than 100 µM; in the assay with K-562 leukemia it was greater than 100 µM; with HS 578T breast it was 43.2 µM; with NCI/ADR-RES ovarian, 53.3 µM; with SF-268 CNS, 36.4 µM; in the assay with A498 renal, greater than 100 µM. The TGI was 32.1 µM in the assay with HCT-116 colon, 33.5 µM in the assay with OVCAR-5 ovarian, 34.4 µM in the assay on PC-3 prostate and greater than 100 µM in the assay on SK-OV-3 ovarian.
With `Cc1cc(C)c(N=Nc2c(O)c(S(=O)(=O)O)cc3cc(S(=O)(=O)O)ccc23)cc1C`, the TGI in the assay with MDA-N, in the assay with K-562 leukemia, in the assay on HS 578T breast, in the assay on NCI/ADR-RES ovarian, in the assay with SF-268 CNS and with A498 renal was greater than 100 µM throughout. Also, the TGI with HCT-116 colon, in the assay on OVCAR-5 ovarian, in the assay on PC-3 prostate and in the assay on SK-OV-3 ovarian was greater than 100 µM in each case.
Take `C=CC(Br)(CBr)CCC(Br)C(C)C` (stereo unspecified): the TGI was 6.37 µM in the assay with MDA-N; 6.94 µM in the assay with K-562 leukemia; 7.73 µM with HS 578T breast; 33.8 µM in the assay with NCI/ADR-RES ovarian; 25.7 µM in the assay on SF-268 CNS; 32.8 µM in the assay on A498 renal. The TGI stood at 14.3 µM in the assay on HCT-116 colon, 29.6 µM in the assay with OVCAR-5 ovarian, 19.5 µM in the assay with PC-3 prostate and 30.2 µM with SK-OV-3 ovarian.
Consider `COc1cc(C=O)cc(C=Nc2ccc(S(N)(=O)=O)cc2)c1O`, for which the TGI with MDA-N is 28.1 µM; in the assay on K-562 leukemia it was greater than 100 µM; in the assay on HS 578T breast, 6.16 µM; with NCI/ADR-RES ovarian, greater than 100 µM; in the assay with SF-268 CNS, 39.2 µM; with A498 renal, 48.2 µM. Besides, the TGI in the assay on HCT-116 colon was 94.7 µM; with OVCAR-5 ovarian, greater than 100 µM; in the assay on PC-3 prostate, 21.3 µM; in the assay on SK-OV-3 ovarian, 7.93 µM.
With `O=C1OC(=O)C2C1C(c1ccccc1[N+](=O)[O-])C=C(c1ccco1)N2c1ccncc1` (stereo unspecified), the TGI with MDA-N was 18.8 µM; with K-562 leukemia it was 5.33 µM; in the assay on HS 578T breast, greater than 100 µM; with NCI/ADR-RES ovarian it was 52.6 µM; in the assay with SF-268 CNS, 46.3 µM; in the assay with A498 renal, 26.9 µM. Moreover, the TGI came out at 3.31 µM with HCT-116 colon, 51.6 µM with OVCAR-5 ovarian, 28.1 µM with PC-3 prostate and 32 µM with SK-OV-3 ovarian.
